Source: patent US6352715B1, “Transdermal rate-controlled delivery of Huperzine A for treatment of alzheimer's disease” (priority 1998, dated 2002)

Experiments:
[1] = pH/solubility profile in buffers; assay type: physicochemical; details: 37° C., 24 hours
Description: In order to conserve the drug quantity being used, single point solubility determinations were carried out. Six different buffers were prepared in to determine the solubility of Hup A. The pH range chosen to study solubility is in 2 units above and 2 units below the pKa of the drug, i.e., 5 to 9. In addition, pH 7.4 was also selected to determine solubility at the physiological pH. To determine solubility, weighed amounts of Hup A were added to six different glass vials. In each vial, 1 ml of the respective buffer was added. The vials were tightly closed and kept in a shaking water bath maintained at 37° C. for 24 hours. At the end of such period, the supernatant solution was filtered through 0.22 um nylon filters into pre-warmed tubes. An aliquot of the filtrate was further diluted and analyzed by HPLC.
It can be seen that at pH 2 units above the pKa, i.e., at pH 9, the solubility of Hup A is the lowest. At low pH, i.e., at pH 5, the solubility of Hup A is seen to be high. This is expected as at pH 5, the drug predominantly exists as an ionized moiety with a single positive charge. These charged ions are hydrophilic and can be easily solubilized by water. At pH 9, the drug predominantly exists as an neutral moiety which is lipophilic, thus the solubility is low. The log of solubility as a function of solution pH is explained by the Henderson-Hasselback equation: […]

[2] = Partitioning of Hup A into n-octanol from buffers of different pH; assay type: physicochemical; details: 48 hrs
Description: The buffers used to prepare solutions of Hup A for the partitioning study were the same as those used in the solubility studies, i.e., isotonic phosphate buffers with pH 5, 6, 7, 7.4, 8 and 9. Initially, 100 ml of n-octanol was mixed with 100 ml of phosphate buffers and placed in shaking water bath at 37° C. for 24 hours to saturate the n-octanol with buffer prior to study. Then the n-octanol was separated from the buffer using a separating funnel.
Solutions of Hup A (about 150 ug/ml concentration) were prepared separately in each of the six buffers. Then 1 ml each of each buffers was pipetted to three test tube. To these test tubes, 1 ml of the n-octanol was added. Controls were set up consisting only of buffer solutions without n-octanol to account for changes in concentration due to evaporation of buffer or degradation of drug if present. The tubes were sealed and placed in a shaking water bath at 37° C. for 48 hrs. Samples of 100 ul each were taken from both the n-octanol layer and the buffer layer and analyzed by HPLC. Partition coefficients were determined from the ratio of concentration of Hup A in n-octanol to that in buffer.
It appears that at high pH, when Hup A exists predominantly as a neutral moiety, the partition coefficient is high. As the pH is reduced the fraction of the unionized moiety decreases and so does the partition coefficient. At pH 5, when Hup A exists predominantly as a ionized moiety the partition coefficient is below 1, indicating high affinity of the drug for the buffer phase.

[3] = test system: rat embryo hippocampus and cerebellum cultured cells; details: cited from earlier work
[4] = test system: patients; details: orally 0.2 mg (4 tablets, b.i.d) for 8 weeks; cited from earlier work
[5] = test system: rat cortex; details: cited from earlier work
[6] = single oral dose of 0.99 mg, six volunteers; cited from earlier work
[7] = Determination of pKa of Hup A by pH titration; assay type: physicochemical; details: 5×10^−4 M in water titrated with HCl
Description: A solution of the Hup A was prepared in water to obtain a concentration of 5×10^−4 M solution. Hydrochloric acid solution 0.005M was prepared by dilution of concentrated acid. Similarly, a NaOH solution was prepared by diluting commercially available 1N solution.
For all titration, the procedure used was similar and is described below. The solution to be titrated was taken in a breaker and continually mixed using a magnetic stir bar. A pH electrode was used to measure pH of the solution during the experiments. The pH meter was connected to a computer, which was programmed to automatically obtain pH readings every 10 seconds. […]
First, the HCL solution was standardized by titrating it with standard NaOH solution. This was carried out three times an d end point was determined from the inflection point using the titration profile. […]
The pH titration curve consists of […]: initial gradual decrease in pH as the base is slowly neutralized by the acid; middle region showing slow decrease in pH as excess acid is added to the solution. The pKa of the base is calculated from the initial region. The pH corresponding to midpoint of the initial part of the curve is the approximate pKa of the Hup A. Further, the exact pKa of Hup A was calculated by method described by Albert and Sergeant (1971), which is incorporated herein by reference. […]

[8] = In vitro permeation of Hup A through human cadaver skin from donor solutions (Valia-Chien permeation cell); assay type: in vitro ADME; details: for Permeation arate: receptor pH 7.4; for Permeability × 10^3: values × 10^3
Description: Human cadaver skin is employed as model for studying in vitro transdermal permeation of Hup A. The skin specimens of human cadavers, obtained from Ohio Valley Skin & Tissue Center, are mounted between the two half cells of Valia-Chien Permeation Cell. Donor solutions were prepared in isotonic phosphate buffers of pH 5, 6, 7, 7.4, 8 and 9. Concentration of each solution was about 750 ug/ml. Permeation studies were carried out in triplicate at each pH evaluated. The receptor solution used in each case was isotonic phosphate buffer pH 7.4 to simulate physiological conditions.
As stated above human cadaver skin was used in the permeation studies. The skin, obtained frozen, was first thawed and rinsed with in normal saline. The skin was then blotted to remove excess moisture and cut into 2 cm×2 cm pieces. Each skin piece was sandwiched between two microscope glass slides and the thickness was measured using a micrometer. These skin pieces were then mounted between the two half-cell of Valia-Chien permeation cells, with the stratum corneum facing the donor half-cell. The respective donor and receptor solutions were added (3.3 ml each). Samples of 100 ul each were taken from the receptor compartment at various intervals up to 48 hours and were analyzed by HPLC. The volume of receptor compartment was replaced with fresh isotonic phosphate buffer after each sample. At end of 48 hours, a single aliquot was taken from the donor compartment and analyzed after suitable dilution to evaluate the amount of Hup A lost from the donor in 48 hours.
The rate of Hup A permeation is determined based on the general formula for the determination of the rate of permeation of a drug across a membrane as illustrated by the following equation (1): [formula]
Sink conditions were maintained throughout the permeation study i.e. Cd>>Cr. Permeability can be calculated using solubility of Hup A as the saturation concentration in donor cell (Cd). [formula]
Intrinsic permeability was calculated by correlating the permeability with the thickness of the skin:
Wherein P=intrinsic permeability and h=thickness in cm.
Generally speaking, higher the partitioning of the drug into the skin, higher the permeation will be. The pH-dependent partitioning behavior of Hup A is seen to be reflected in its skin permeation profiles. The intrinsic permeability-pH profiles of Hup A (FIG. 5) is similar to that observed for partition coefficient-pH relationship (FIG. 3). Again, a sigmoidal relationship is observed. Further, the amount lost from the donor solution, which corresponds to the sum of the amount permeated and the amount retained in the skin, was also seen to follow similar relationship (FIG. 6).

In the case of C/C=C1\[C@H]2C=C(C)C[C@]1(N)c1ccc(=O)[nH]c1C2 [Hup A, Huperzine A], the Solubility ([1]; pH 5 buffer) is reported as 6.225 (0.153) mg/ml, the Solubility ([1]; pH 6 buffer) is reported as 4.639 (0.001) mg/ml and the Solubility ([1]; pH 7 buffer) is reported as 2.123 (0.042) mg/ml. The Solubility ([1]; pH 7.4 buffer) was 1.325 (0.042) mg/ml, the Solubility ([1]; pH 8 buffer) was 1.201 (0.017) mg/ml and the Solubility ([1]; pH 9 buffer) was 1.044 (0.018) mg/ml. The “Partition Coefficient” value ([2]; n-octanol/buffer pH 6, 37° C.) was 1.681 (0.010), the “Partition Coefficient” value ([2]; n-octanol/buffer pH 7, 37° C.) was 11.376 (0.415) and the “Partition Coefficient” value ([2]; n-octanol/buffer pH 7.4, 37° C.) was 18.359 (0.294). For the same compound, the “Partition Coefficient” value ([2]; n-octanol/buffer pH 8, 37° C.) was 24.063 (0.515), the “Partition Coefficient” value ([2]; n-octanol/buffer pH 9, 37° C.) was 27.463 (0.131) and the “death of neuronal cell caused by toxic levels of glutamate” value [3] was “decreases the death of neuronal cell”. The “patients with significant improvement in memory, cognition and behavior” value [4] was 58%, the side effects [4] was “without causing any severe side effects” and the “permeation through the blood-brain barrier” value ([5]; rat, in vivo) was “able to permeate through the blood-brain barrier”. For the same compound, the “Ach, norepinephrine and dopamine in rat cortex” value ([5]; systemic or local administration) was “dose-dependent increase”, the pharmaco-kinetics evaluation [6] was “absorbed rapidly, distributed widely in the body, and eliminated at a moderate rate” and the pKa [7] was 6.97 (+/−0.06). For the same compound, the Permeation arate ([8]; donor pH 5, about 750 ug/ml) was 0.776 (0.029) ug/cm^2/hr, the “Permeability × 10^3” value ([8]; donor pH 5) was 1.026 (0.038) cm/hr and the Permeation arate ([8]; donor pH 6, about 750 ug/ml) was 0.213 (0.088) ug/cm^2/hr. The “Permeability × 10^3” value ([8]; donor pH 6) was 0.290 (0.119) cm/hr, the Permeation arate ([8]; donor pH 7, about 750 ug/ml) was 0.633 (0.225) ug/cm^2/hr and the “Permeability × 10^3” value ([8]; donor pH 7) was 0.846 (0.300) cm/hr. For the same compound, the Permeation arate ([8]; donor pH 7.4, about 750 ug/ml) was 0.759 (0.368) ug/cm^2/hr, the “Permeability × 10^3” value ([8]; donor pH 7.4) was 1.007 (0.489) cm/hr and the “Permeability × 10^3” value ([8]; donor pH 8) was 4.434 (1.7050) cm/hr. For the same compound, the Permeation arate ([8]; donor pH 9, about 750 ug/ml) was 5.082 (2.162) ug/cm^2/hr and the “Permeability × 10^3” value ([8]; donor pH 9) was 6.118 (2.603) cm/hr.
